Series [1] relates to erythrocytes obtained from human type O blood. Nature of the series: Hemolytic effect on erythrocytes. Particulars: human type O erythrocytes in PBS; concentrations up to 100 µM; 4 hr, 37 °C; read at 415 nm. Format: cell-based. On the procedure:
Erythrocytes were isolated from fresh blood type O+ by centrifugation for 15 min at 10000 rpm. The erythrocytes were diluted with phosphate-buffered saline, mixed with various concentrations of β-ginkgotide β-gB1 (1–100 µM) and incubated for 4 hr at 37 °C. The hemolytic effect was examined using a microplate reader set at 415 nm^3.

Series [2] is described as follows: Enzymatic stability against carboxypeptidase A. Format: in vitro ADME. Conditions: isolated enzyme carboxypeptidase; exopeptidase carboxypeptidase A (method prints 100 nM carboxypeptidase B), up to 6 hr, 37 °C, 50 mM Tris-HCl pH 7.5, 100 mM NaCl; 28 µg peptide; UPLC peak area with MALDI-TOF MS; read-out: peptide remaining after carboxypeptidase A.
The test system of a further series is BHK cell line. As to the kind of experiment: In vitro cytotoxicity (MTT), BHK cells. Format: cell-based. Conditions: concentrations up to 100 µM, 24 hr.
Series [3] is described as follows: Enzymatic stability against trypsin. It is filed as in vitro ADME. Conditions: isolated enzyme trypsin; endopeptidase trypsin, up to 6 hr, 37 °C, 100 mM ammonium bicarbonate pH 7.8; 28 µg peptide; quenched with 1 M HCl; UPLC peak area with MALDI-TOF MS; read-out: peptide remaining after trypsin. Here is the method:
The β-ginkgotide β-gB1 (28 µg) was added to 100 µL of 100 mM ammonium bicarbonate buffer (pH 7.8) and incubated in a water bath at 37 °C for 6 hr. At each time-point (0 and 6 hr), 20 µL of the treated sample was aliquoted and quenched by adding 5 µL of 1 M hydrochloric acid.
The reaction mixture was analyzed by a Nexera UHPLC system (Shimadzu, Kyoto, Japan) equipped with an Aeris peptide XB-C18 column (Phenomenex, CA, USA; particle size 3.6 µm, 100 × 4.6 mm). The eluents were monitored with MALDI-TOF MS, and the area under the peak before and after the treatment was determined to evaluate stability.
Figure S5. Stability assays of β-gB1. (A) Thermal stability of β-gB1 incubated at 100 °C for 120 minutes. (B) Acidic condition stability of […] incubated in 0.2 M HCl (pH 2.0) at 37 °C for 120 minutes. […] The molecular weight of the peak was determined by MALDI-TOF MS.

The test system of the next series is Vero cell line. As to the kind of experiment: In vitro cytotoxicity (MTT), Vero cells. Conditions: concentrations up to 100 µM, 24 hr. It is filed as cell-based.

Bridge positions count the residues as written; N and C are the ends. Peptide text beside a SMILES is read from it.

From PMC5522442, “β-Ginkgotides: Hyperdisulfide-constrained peptides from Ginkgo biloba” (Scientific Reports, 2017) come the findings set out here.

By fraction remaining is commonly meant what is left of the initial amount, in per cent. As for `CC[C@H](C)[C@@H]1NC(=O)[C@@H]2CSSC[C@H](NC(=O)CNC(=O)[C@@H](NC(=O)[C@H](CCC(=O)O)NC(=O)[C@@H](N)Cc3ccc(O)cc3)[C@@H](C)O)C(=O)N[C@@H](CCCCN)C(=O)N[C@@H](CCCNC(=N)N)C(=O)N[C@H]3CSSC[C@@H](C(=O)O)NC(=O)[C@H](CSSC[C@H](NC3=O)C(=O)N[C@@H](Cc3ccc(O)cc3)C(=O)N[C@@H](CC(C)C)C(=O)N[C@@H](CC(=O)O)C(=O)N[C@@H](CCC(=O)O)C(=O)N[C@@H](Cc3ccc(O)cc3)C(=O)NCC(=O)N2)NC(=O)[C@H](CCCNC(=N)N)NC1=O` [β-gB1] (H-YETGCKRCCYLDEYGCIRCC-OH; disulfide 5-16, 8-20, 9-19), the hemolytic effect entry in series [1] is on record as “no hemolytic effect”. Besides, the amount remaining at 6 h in series [2] and in series [3] was above 90% throughout. Further, the “cytotoxic effect, BHK cells” value in the series on BHK cell line is “nontoxic”. Besides, the “cytotoxic effect, Vero cells” value in the series with Vero cell line is given as “nontoxic”.
